Patent publication US20210269440A1 (BETTA PHARMACEUTICALS CO., LTD, priority 2018, published 2021)

These compounds were tested against T1, PD-1/PD-L1 protein/protein interaction (Homo sapiens, UniProt Q9NZQ7) (assay: PD-1/PD-L1 homogenous time-resolved fluorescence (HTRF) binding assay). Conditions: not given.
T1 construct: Recombinant human PD-L1 protein (19-238) with a His-tag at the C-terminus; purchased AcroBiosystems PD1-H5229 (PD-L1); PD1-H5257 (PD-1)
Method: Resolved Fluorescence (HTRF) Binding Assay
The assays were conducted in a standard black 384-well polystyrene plate with a final volume of […]. Inhibitors were first serially diluted in DMSO and then added to the plate wells before the addition of other reaction components. The final concentration of DMSO in the assay was 1%. The assays were carried out at 25° C. in the PBS buffer (pH 7.4) with 0.05% Tween-20 and 0.1% BSA. […] Plates were centrifuged and proteins were preincubated with inhibitors for 40 min. The incubation was followed by the addition of 10 μL of HTRF detection buffer supplemented with Europium cryptate-labeled anti-human IgG (PerkinElmer-AD0212) specific for Fc and anti-His antibody conjugated to SureLight®—Allophycocyanin (APC, PerkinElmer-AD0059H). After centrifugation, the plate was incubated at 25° C. for 60 min. […] Final concentrations in the assay were […] PD1, 10 nM PD-L1, 1 nM europium anti-human IgG and 20 nM anti-His-Allophycocyanin. IC50 determination was performed by fitting the curve of percent control activity versus the log of the inhibitor concentration using the GraphPad Prism 5.0 software.

T1 sequence (Q9NZQ7 19-238): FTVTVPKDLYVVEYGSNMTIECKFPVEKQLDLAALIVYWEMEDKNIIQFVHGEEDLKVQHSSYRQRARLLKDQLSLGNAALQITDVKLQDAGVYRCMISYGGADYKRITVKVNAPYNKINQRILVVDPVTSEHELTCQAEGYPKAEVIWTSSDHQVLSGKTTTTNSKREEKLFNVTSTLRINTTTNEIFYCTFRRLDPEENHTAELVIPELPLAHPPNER

IC50 [nM] | SMILES
3.3 | Cc1c(Nc2nccc3cc(CN4CCCCC4C(=O)O)cnc23)cccc1-c1cccc(OCCCN2CCOCC2)c1C (stereo not drawn) [Compound 5]
2 to 10 | Cc1c(Nc2nccc3cc(CN(C)CC(=O)O)cnc23)cccc1-c1cccc(OCCCN2CCOCC2)c1C [Compound 11, N-((8-((2,2′-dimethyl-3′-(3-morpholinopropoxy)-[1,1′-biphenyl]-3-yl)amino)-1,7-naphthyridin-3-yl)methyl)-N-methylglycine]
10 to 150 | Cc1c(Nc2nccc3cc(CN4CC(F)(F)CC4C(=O)O)cnc23)cccc1-c1cccc(OCCCN2CCOCC2)c1C (stereo not drawn) [Compound 12, 1-((8-((2,2′-dimethyl-3′-(3-morpholinopropoxy)-[1,1′-biphenyl]-3-yl)amino)-1,7-naphthyridin-3-yl)methyl)-4,4-difluoropyrrolidine-2-carboxylic acid]
< 2 | Cc1c(Nc2nccc3cc(CNC(C)(CO)C(=O)O)cnc23)cccc1-c1cccc(OCCCN2CCOCC2)c1C (stereo not drawn) [Compound 13, 2-(((8-((2,2′-dimethyl-3′-(3-morpholinopropoxy)-[1,1′-biphenyl]-3-yl)amino)-1,7-naphthyridin-3-yl)methyl)amino)-3-hydroxy-2-methylpropanoic acid]
< 2 | CCN(CC(=O)O)Cc1cnc2c(Nc3cccc(-c4cccc(OCCCN5CCOCC5)c4C)c3C)nccc2c1 [Compound 14, N-((8-((2,2′-dimethyl-3′-(3-morpholinopropoxy)-[1,1′-biphenyl]-3-yl)amino)-1,7-naphthyridin-3-yl)methyl)-N-ethylglycine]
< 2 | Cc1c(Nc2nccc3cc(CN4CC(C(=O)O)C4)cnc23)cccc1-c1cccc(OCCCN2CCOCC2)c1C [Compound 15, 1-((8-((2,2′-dimethyl-3′-(3-morpholinopropoxy)-[1,1′-biphenyl]-3-yl)amino)-1,7-naphthyridin-3-yl)methyl)azetidine-3-carboxylic acid]
< 2 | Cc1c(Nc2nccc3cc(CN4CCCCC4C(=O)O)cnc23)cccc1-c1cccc(OCCCN2CCCCC2)c1C (stereo not drawn) [Compound 16, 1-((8-((2,2′-dimethyl-3′-(3-(piperidin-1-yl)propoxy)-[1,1′-biphenyl]-3-yl)amino)-1,7-naphthyridin-3-yl)methyl)piperidine-2-carboxylic acid]
2 to 10 | Cc1c(Nc2nccc3cc(CN4CCCCC4C(=O)O)cnc23)cccc1-c1cccc(OCCCN2CCN(C)CC2)c1C (stereo not drawn) [Compound 17, 1-((8-((2,2′-dimethyl-3′-(3-(4-methylpiperazin-1-yl)propoxy)-[1,1′-biphenyl]-3-yl)amino)-1,7-naphthyridin-3-yl)methyl)piperidine-2-carboxylic acid]
< 2 | Cc1c(Nc2nccc3cc(CN4CCCCC4C(=O)O)cnc23)cccc1-c1cccc(OCCCN2CCCC2)c1C (stereo not drawn) [Compound 18, 1-((8-((2,2′-dimethyl-3′-(3-(pyrrolidin-1-yl)propoxy)-[1,1′-biphenyl]-3-yl)amino)-1,7-naphthyridin-3-yl)methyl)piperidine-2-carboxylic acid]
< 2 | Cc1c(Nc2nccc3cc(CN4CCCCC4C(=O)O)cnc23)cccc1-c1cccc(OCCCN2CCC(O)C2)c1C (stereo not drawn) [Compound 19, 1-((8-((3′-(3-(3-hydroxypyrrolidin-1-yl)propoxy)-2,2′-dimethyl-[1,1′-biphenyl]-3-yl)amino)-1,7-naphthyridin-3-yl)methyl)piperidine-2-carboxylic acid]
> 150 | Cc1c(Nc2nccc3cc(CN4CCCCC4C(=O)O)cnc23)cccc1-c1cccc2c1CCN2CCCN1CCOCC1 (stereo not drawn) [Compound 20, 1-((8-((2-methyl-3-(1-(3-morpholinopropyl)indolin-4-yl)phenyl)amino)-1,7-naphthyridin-3-yl)methyl)piperidine-2-carboxylic acid]
< 2 | CCN(CC)CCCOc1cccc(-c2cccc(Nc3nccc4cc(CN5CCCCC5C(=O)O)cnc34)c2C)c1C (stereo not drawn) [Compound 21, 1-((8-((3′-(3-(diethylamino)propoxy)-2,2′-dimethyl-[1,1′-biphenyl]-3-yl)amino)-1,7-naphthyridin-3-yl)methyl)piperidine-2-carboxylic acid]
2 to 10 | Cc1c(Nc2nccc3cc(CN4CCCCC4C(=O)O)cnc23)cccc1-c1cccc(OCCCN(C)Cc2ccccc2)c1C (stereo not drawn) [Compound 22, 1-((8-((3′-(3-(benzyl(methyl)amino)propoxy)-2,2′-dimethyl-[1,1′-biphenyl]-3-yl)amino)-1,7-naphthyridin-3-yl)methyl)piperidine-2-carboxylic acid]
< 2 | CCNCCCOc1cccc(-c2cccc(Nc3nccc4cc(CN5CCCCC5C(=O)O)cnc34)c2C)c1C (stereo not drawn) [Compound 23, 1-((8-((3′-(3-(ethylamino)propoxy)-2,2′-dimethyl-[1,1′-biphenyl]-3-yl)amino)-1,7-naphthyridin-3-yl)methyl)piperidine-2-carboxylic acid]
> 150 | CC(=O)NCCCOc1cccc(-c2cccc(Nc3nccc4cc(CN5CCCCC5C(=O)O)cnc34)c2C)c1C (stereo not drawn) [Compound 24, 1-((8-((3′-(3-acetamidopropoxy)-2,2′-dimethyl-[1,1′-biphenyl]-3-yl)amino)-1,7-naphthyridin-3-yl)methyl)piperidine-2-carboxylic acid]
> 150 | Cc1c(Nc2nccc3cc(CN4CCCCC4C(=O)O)cnc23)cccc1-c1cccc(OCCCNC(N)=O)c1C (stereo not drawn) [Compound 25, 1-((8-((2,2′-dimethyl-3′-(3-ureidopropoxy)-[1,1′-biphenyl]-3-yl)amino)-1,7-naphthyridin-3-yl)methyl)piperidine-2-carboxylic acid]
> 150 | Cc1c(Nc2nccc3cc(CN4CCCCC4C(=O)O)cnc23)cccc1-c1cccc(OCCCNC(=N)N)c1C (stereo not drawn) [Compound 26, 1-((8-((3′-(3-guanidinopropoxy)-2,2′-dimethyl-[1,1′-biphenyl]-3-yl)amino)-1,7-naphthyridin-3-yl)methyl)piperidine-2-carboxylic acid]
> 150 | Cc1c(Nc2nccc3cc(CN4CCCCC4C(=O)O)cnc23)cccc1-c1cccc(OCCCNS(C)(=O)=O)c1C (stereo not drawn) [Compound 27, 1-((8-((2,2′-dimethyl-3′-(3-(methylsulfonamido)propoxy)-[1,1′-biphenyl]-3-yl)amino)-1,7-naphthyridin-3-yl)methyl)piperidine-2-carboxylic acid]

Same assay, conditions: HTRF, recombinant human PD-1 (Fc tag) / PD-L1 (His-tag), 25° C., PBS pH 7.4; read-out: IC50

IC50 [nM] | SMILES
0.43 | Cc1c(Nc2nccc3cc(CNCC(=O)O)cnc23)cccc1-c1cccc(OCCCN2CCOCC2)c1C [Compound 1, ((8-((2,2′-dimethyl-3′-(3-morpholinopropoxy)-[1,1′-biphenyl]-3-yl)amino)-1,7-naphthyridin-3-yl)methyl)glycine]
3 | Cc1c(Nc2nccc3cc(CNCC(=O)O)cnc23)cccc1-c1ccccc1 [Compound 2, ((8-((2-methyl-[1,1′-biphenyl]-3-yl)amino)-1,7-naphthyridin-3-yl)methyl)glycine]
2 | Cc1c(Nc2nccc3cc(CN4CCC[C@H]4C(=O)O)cnc23)cccc1-c1cccc(OCCCN2CCOCC2)c1C [Compound 3, ((8-((2,2′-dimethyl-3′-(3-morpholinopropoxy)-[1,1′-biphenyl]-3-yl)amino)-1,7-naphthyridin-3-yl)methyl)proline]
13 | Cc1c(Nc2nccc3cc(CN4CCC[C@H]4C(=O)O)cnc23)cccc1-c1ccccc1 [Compound 4, ((8-((2-methyl-[1,1′-biphenyl]-3-yl)amino)-1,7-naphthyridin-3-yl)methyl)proline]
2.8 | Cc1c(Nc2nccc3cc(CN4CC(O)CC4C(=O)O)cnc23)cccc1-c1cccc(OCCCN2CCOCC2)c1C (stereo not drawn) [Compound 6, 1-((8-((2,2′-dimethyl-3′-(3-morpholinopropoxy)-[1,1′-biphenyl]-3-yl)amino)-1,7-naphthyridin-3-yl)methyl)-4-hydroxypyrrolidine-2-carboxylic acid]
0.4 | Cc1c(Nc2nccc3cc(CNCCC(=O)O)cnc23)cccc1-c1cccc(OCCCN2CCOCC2)c1C [Compound 7, 3-(((8-((2,2′-dimethyl-3′-(3-morpholinopropoxy)-[1,1′-biphenyl]-3-yl)amino)-1,7-naphthyridin-3-yl)methyl)amino)propanoic acid]
0.9 | Cc1c(Nc2nccc3cc(CNCCCC(=O)O)cnc23)cccc1-c1cccc(OCCCN2CCOCC2)c1C [Compound 8, 4-(((8-((2,2′-dimethyl-3′-(3-morpholinopropoxy)-[1,1′-biphenyl]-3-yl)amino)-1,7-naphthyridin-3-yl)methyl)amino)butanoic acid]
1.2 | Cc1c(Nc2nccc3cc(CN4CCC(C(=O)O)C4)cnc23)cccc1-c1cccc(OCCCN2CCOCC2)c1C (stereo not drawn) [Compound 9, 1-((8-((2,2′-dimethyl-3′-(3-morpholinopropoxy)-[1,1′-biphenyl]-3-yl)amino)-1,7-naphthyridin-3-yl)methyl)pyrrolidine-3-carboxylic acid]
0.5 | Cc1c(Nc2nccc3cc(CN[C@@H](CO)C(=O)O)cnc23)cccc1-c1cccc(OCCCN2CCOCC2)c1C [Compound 10, ((8-((2,2′-dimethyl-3′-(3-morpholinopropoxy)-[1,1′-biphenyl]-3-yl)amino)-1,7-naphthyridin-3-yl)methyl)serine]

Same assay, conditions: R is the group comprising morpholine

biological activity (potency), as shown in Table 1 | SMILES
much more potent | Cc1c(Nc2nccc3cc(CNCC(=O)O)cnc23)cccc1-c1cccc(OCCCN2CCOCC2)c1C [Compound 1, ((8-((2,2′-dimethyl-3′-(3-morpholinopropoxy)-[1,1′-biphenyl]-3-yl)amino)-1,7-naphthyridin-3-yl)methyl)glycine]
much more potent | Cc1c(Nc2nccc3cc(CN4CCC[C@H]4C(=O)O)cnc23)cccc1-c1cccc(OCCCN2CCOCC2)c1C [Compound 3, ((8-((2,2′-dimethyl-3′-(3-morpholinopropoxy)-[1,1′-biphenyl]-3-yl)amino)-1,7-naphthyridin-3-yl)methyl)proline]
much more potent | Cc1c(Nc2nccc3cc(CN4CCCCC4C(=O)O)cnc23)cccc1-c1cccc(OCCCN2CCOCC2)c1C (stereo not drawn) [Compound 5]
